Source: BindingDB's records for patent US20240343747 (Accro Bioscience (HK), 2024)
pKd: −log10 of the molar value.

What was measured:
Assay in all cases: Competitive Binding Assay
[1] = target: T1, Tyrosine-protein kinase JAK1 [837-1142] (Homo sapiens, UniProt P23458)
T1 construct: 837-1142
Description: (§1) The lysates were centrifuged and filtered to remove cell debris. The remaining kinases were produced in HEK-293 cells and subsequently tagged with DNA for qPCR detection. Streptavidin coated magnetic beads were treated with biotinylated small molecule ligands for 30 minutes at room temperature to generate affinity resins for kinase assays. The liganded beads were blocked with excess biotin and washed with blocking buffer (SeaBlock (Pierce), 1% BSA, 0.05 % Tween 20, 1 mM DTT) to remove unbound ligand and to reduce non-specific binding. […] Test compounds were prepared as 111X stocks in 100% DMSO. Dissociation constants (Kds) were determined using an 11-point 3-fold compound dilution series with three DMSO control points. All compounds for Kd measurements are distributed by acoustic transfer (non-contact dispensing) in 100% DMSO. The compounds were then diluted directly into the assays such that the final concentration of DMSO was 0.9%. All reactions performed in polypropylene 384-well plate. Each was a final volume of 0.02 ml. The assay plates were incubated at room temperature with shaking for 1 hour and the affinity beads were washed with wash buffer (1×PBS, 0.05% Tween 20). The beads were then re-suspended in elution buffer (1×PBS, 0.05% Tween 20, 0.5 μM nonbiotinylated affinity ligand) and incubated at room temperature with shaking for 30 minutes. The kinase concentration in the eluates was measured by qPCR.

[2] = target: T2, Non-receptor tyrosine-protein kinase TYK2 [575-869] (Homo sapiens, UniProt P29597)
T2 construct: 575-869
T2 sequence (P29597 575-869): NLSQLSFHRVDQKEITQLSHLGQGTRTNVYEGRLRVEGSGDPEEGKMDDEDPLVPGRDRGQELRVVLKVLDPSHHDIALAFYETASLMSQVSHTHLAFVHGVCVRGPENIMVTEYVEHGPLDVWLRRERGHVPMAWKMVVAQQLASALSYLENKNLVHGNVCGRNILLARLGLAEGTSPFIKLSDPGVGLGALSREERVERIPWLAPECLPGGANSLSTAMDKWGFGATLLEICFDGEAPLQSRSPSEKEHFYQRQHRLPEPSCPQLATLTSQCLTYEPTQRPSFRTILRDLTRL
Description: as §1

[3] = target: T3, Tyrosine-protein kinase JAK2 [808-1132] (Homo sapiens, UniProt O60674)
T3 construct: 808-1132
T3 sequence (O60674 798-1132): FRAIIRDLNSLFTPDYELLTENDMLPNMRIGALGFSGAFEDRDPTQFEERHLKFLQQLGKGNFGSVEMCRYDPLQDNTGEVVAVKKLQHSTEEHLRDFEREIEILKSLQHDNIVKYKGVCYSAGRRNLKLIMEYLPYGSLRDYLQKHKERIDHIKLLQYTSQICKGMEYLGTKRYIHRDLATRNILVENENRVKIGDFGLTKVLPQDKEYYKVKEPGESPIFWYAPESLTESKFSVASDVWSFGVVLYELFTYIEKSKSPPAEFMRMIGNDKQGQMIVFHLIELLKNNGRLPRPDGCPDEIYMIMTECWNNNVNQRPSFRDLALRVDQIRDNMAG
Description: as §1

T1 sequence (P23458 837-1142): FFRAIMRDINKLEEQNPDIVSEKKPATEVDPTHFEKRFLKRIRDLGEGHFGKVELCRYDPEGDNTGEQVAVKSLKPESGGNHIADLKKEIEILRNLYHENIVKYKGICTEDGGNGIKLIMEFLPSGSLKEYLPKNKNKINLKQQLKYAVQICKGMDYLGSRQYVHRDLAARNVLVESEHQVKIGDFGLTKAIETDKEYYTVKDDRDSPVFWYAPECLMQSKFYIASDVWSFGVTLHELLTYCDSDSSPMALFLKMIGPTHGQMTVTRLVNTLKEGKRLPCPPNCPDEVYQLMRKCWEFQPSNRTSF

pKd [1]: < 4.52
pKd [2]: 10.85
pKd [3]: < 4.52
Structure (SMILES): [2H]C([2H])([2H])NC(=O)c1nnc(NC(=O)C2CC2)cc1Nc1cccc(-c2cc(P(=O)(C3CC3)C3CC3)n(C)n2)c1OC [US20240343747, Example B41]
